Experimental data taken from article PMC11416940, “Identification and characterization of a small molecule BFstatin inhibiting BrpR, the transcriptional regulator for biofilm formation of Vibrio vulnificus” (Frontiers in Microbiology, 2024).

Target: T1, BrpR
T1 construct: His6-tagged BrpR (brpR gene on pET-28a(+), expressed in E. coli BL21 (DE3))
Experiment: microscale thermophoresis (MST) with labeled purified His6-BrpR; supported by EMSA inhibition of promoter DNA binding
Parameters: species or system Vibrio vulnificus

CCCNC(=O)CC(=O)Nc1cc(F)ccc1Cl [175C05, N1-(2-chloro-5-fluorophenyl)-N3-propylmalonamide]
Kd: 7.14 µM
